Data published in the NIST ThermoML archive (doi:10.1021/je7003098).

Conditions: for mass density: 101.33 kPa, Liquid, Pycnometric method; for surface tension liquid-gas: Ring tensiometer

CCCCCCCCCCCCCC[P+](CCCCCC)(CCCCCC)CCCCCC.O=S(=O)([N-]S(=O)(=O)C(F)(F)F)C(F)(F)F
Conditions	mass density [kg/m3]	surface tension liquid-gas [mN/m]
298.15 K	1050.1	–
298.2 K	–	33.08
303 K	–	32.57
303.15 K	1048.3	–
308 K	–	32.15
308.15 K	1045.2	–
313 K	–	31.77
313.15 K	1042	–
318 K	–	31.4
318.15 K	1039.2	–
323.15 K	1035.6	–
323.3 K	–	31.09
327.9 K	–	30.65
328.15 K	1032.9	–
332.9 K	–	30.28
333.15 K	1029.6	–
338.9 K	–	29.68
344.2 K	–	29.45
349.8 K	–	28.93

CCCCCCCCCC[N+](C)(C)C.O=S(=O)([N-]S(=O)(=O)C(F)(F)F)C(F)(F)F
Conditions	mass density [kg/m3]	surface tension liquid-gas [mN/m]
298.15 K	1226.3	–
300.96 K	–	35.42
302.95 K	–	35.12
303.15 K	1222.2	–
307.75 K	–	34.81
308.15 K	1218.6	–
312.28 K	–	34.55
313.15 K	1214.7	–
318.08 K	–	34.2
318.15 K	1210.6	–
323.15 K	1206.3	–
324.03 K	–	33.71
328.15 K	1204.7	–
330.53 K	–	33.36
333.15 K	1200.3	–
337.12 K	–	32.82
342.53 K	–	32.51
347.26 K	–	32.23

CCCCCCCC[N+](C)(CCCCCCCC)CCCCCCCC.O=S(=O)([N-]S(=O)(=O)C(F)(F)F)C(F)(F)F
Conditions	mass density [kg/m3]	surface tension liquid-gas [mN/m]
298.15 K	1082.3	–
299.46 K	–	29.06
303.15 K	1080.3	–
303.25 K	–	28.93
308.15 K	1077.3	–
310.18 K	–	28.53
313.15 K	1073.8	–
313.77 K	–	28.23
318.15 K	1073.8	–
318.67 K	–	27.85
321 K	–	27.63
323.15 K	1067.2	–
326.3 K	–	27.18
328.15 K	1063.9	–
329.6 K	–	27.01
333.15 K	1061.1	–
336.79 K	–	26.69

CCCCCC[N+](C)(C)CCC.O=S(=O)([N-]S(=O)(=O)C(F)(F)F)C(F)(F)F
Conditions	mass density [kg/m3]	surface tension liquid-gas [mN/m]
298.15 K	1284.6	–
300.1 K	–	36.74
302 K	–	36.58
303.1 K	–	36.49
303.15 K	1281.6	–
304 K	–	36.42
306 K	–	36.25
308.1 K	–	36.11
308.15 K	1277.5	–
312.3 K	–	35.78
313.15 K	1273.2	–
315.2 K	–	35.55
318 K	–	35.33
318.15 K	1269.9	–
320.6 K	–	35.14
322.6 K	–	35.01
323.15 K	1266	–
328.15 K	1266	–
333.15 K	1258.5	–

CCCCCC[n+]1ccn(C)c1.O=S(=O)([N-]S(=O)(=O)C(F)(F)F)C(F)(F)F
Conditions	surface tension liquid-gas [mN/m]
297.22 K	35.98
301.22 K	35.79
305.48 K	35.54
309.14 K	35.35
312.48 K	35.15
316.28 K	35.03
319.87 K	34.84
323.57 K	34.63
327.48 K	34.45
331.24 K	34.26
334.91 K	34.07
340.92 K	33.76
346.42 K	33.44

CCn1cc[n+](C)c1.O=S(=O)([N-]S(=O)(=O)C(F)(F)F)C(F)(F)F
Conditions	surface tension liquid-gas [mN/m]
298.7 K	41.62
302.05 K	41.38
305.74 K	41.19
309.16 K	41.02
312.6 K	40.87
316.2 K	40.67
319.33 K	40.5
322.63 K	40.39
326.13 K	40.19
331.02 K	39.94

CCCCn1cc[n+](C)c1.F[P-](F)(F)(F)(F)F [1-butyl-3-methylimidazolium hexafluorophosphate]
Conditions	surface tension liquid-gas [mN/m]
298.15 K	47.92
301.32 K	47.71
305.79 K	47.48
309.6 K	47.29
315.44 K	46.92
319.95 K	46.55
325.06 K	46.15
328.68 K	46.04
332.22 K	45.81
335.61 K	45.41

CCn1cc[n+](C)c1.O=S(=O)([O-])C(F)(F)F [1-ethyl-3-methylimidazolium trifluoromethanesulfonate]
Conditions	surface tension liquid-gas [mN/m]
296.28 K	44.46
300.79 K	44.36
304.95 K	44.2
308.14 K	44.07
312.41 K	43.9
317.15 K	43.81
321.93 K	43.64
328.68 K	43.37
333.64 K	43.15
337.82 K	42.99
343.49 K	42.82
347.91 K	42.62
353.56 K	42.49

CCCC[N+](C)(C)C.O=S(=O)([N-]S(=O)(=O)C(F)(F)F)C(F)(F)F [butyltrimethylammonium bis(trifluoromethylsulfonyl)imide]
Conditions	mass density [kg/m3]	surface tension liquid-gas [mN/m]
298.15 K	1374.7	–
298.35 K	–	38.05
302.33 K	–	37.9
303.15 K	1368.6	–
306.15 K	–	37.8
308.15 K	1365.6	–
309.93 K	–	37.69
313.15 K	1361.4	–
314.79 K	–	37.48
318.15 K	1357.3	–
320.39 K	–	37.28
323.15 K	1353.7	–
326.4 K	–	37.09
328.15 K	1349.7	–
330.16 K	–	36.91
333.15 K	1343.9	–
335.64 K	–	36.68
340.58 K	–	36.5

CCCCCC[N+](C)(C)C.O=S(=O)([N-]S(=O)(=O)C(F)(F)F)C(F)(F)F [hexyltrimethylammonium bis[(trifluoromethyl)sulfonyl]imide]
Conditions	mass density [kg/m3]	surface tension liquid-gas [mN/m]
298.15 K	1310.6	–
300.35 K	–	35.88
302.35 K	–	35.71
303.15 K	1307.8	–
304.25 K	–	35.57
307.65 K	–	35.32
308.15 K	1304	–
311.05 K	–	35.09
313.15 K	1299.5	–
314.75 K	–	34.86
318.15 K	1295.7	34.64
322.55 K	–	34.36
323.15 K	1292.1	–
326.25 K	–	34.14
328.15 K	1287.9	–
331.35 K	–	33.86
333.15 K	1283.9	–
333.35 K	–	33.77

CCCCCCCCCCCCCC[P+](CCCCCC)(CCCCCC)CCCCCC.N#C[N-]C#N [tetradecyl(trihexyl)phosphonium dicyanamide]
Conditions	mass density [kg/m3]	surface tension liquid-gas [mN/m]
295.06 K	–	35.22
298.15 K	920.9	–
299.35 K	–	34.85
302.95 K	–	34.58
303.15 K	917.3	–
305.04 K	–	34.45
308.15 K	916.3	–
310.4 K	–	34.06
313.15 K	913.1	–
314.39 K	–	33.8
318.15 K	910.1	–
318.38 K	–	33.5
322.47 K	–	33.24
323.15 K	907.5	–
326.14 K	–	32.94
327.42 K	–	32.61
328.15 K	905	–
333.02 K	–	32.2
333.15 K	902.4	–
338.6 K	–	31.66
343.13 K	–	31.33
348.47 K	–	31.09

CCCCCCCCCCCCCC[P+](CCCC)(CCCC)CCCC.CCCCCCCCCCCCc1ccccc1S(=O)(=O)[O-] [tributyl(tetradecyl)phosphonium 2-dodecylbenzenesulfonate]
Conditions	mass density [kg/m3]
298.15 K	938.4
303.15 K	937.1
308.15 K	933.7
313.15 K	931.1
318.15 K	928.4
323.15 K	925.4
328.15 K	922.8
333.15 K	920.1

CCCC[P+](CC)(CCCC)CCCC.CCOP(=O)([O-])OCC [tributylethylphosphonium diethylphosphate]
Conditions	mass density [kg/m3]	surface tension liquid-gas [mN/m]
296.66 K	–	33.6
298.15 K	997.8	–
302.18 K	–	33.29
303.15 K	995.7	–
307.24 K	–	33.14
308.15 K	992.8	–
312.34 K	–	32.82
313.15 K	989.7	–
318.15 K	985.8	–
318.36 K	–	32.24
323.15 K	982.6	–
323.59 K	–	31.62
328.15 K	979.5	–
329.67 K	–	31.14
333.15 K	975.8	–
336.36 K	–	30.66
343.4 K	–	30.15
347.75 K	–	29.82
350.86 K	–	29.59

CCCCCC[N+](CC)(CC)CC.O=S(=O)([N-]S(=O)(=O)C(F)(F)F)C(F)(F)F [triethylhexylammonium bis((trifluoromethyl)sulfonyl)imide]
Conditions	mass density [kg/m3]	surface tension liquid-gas [mN/m]
298.15 K	1279.3	–
299.54 K	–	35.17
302.65 K	–	34.9
303.15 K	1275.4	–
307.05 K	–	34.45
308.15 K	1271.9	–
313.15 K	1267.6	–
313.73 K	–	33.88
318.15 K	1264.4	–
319.84 K	–	33.49
323.15 K	1260.8	–
324.94 K	–	32.98
328.15 K	1257.4	–
329.34 K	–	32.72
333.15 K	1253	–
335.04 K	–	32.47
341.93 K	–	31.98
347.11 K	–	31.45

CCCCCCCCCCCCCC[P+](CCCCCC)(CCCCCC)CCCCCC.[Cl-] [trihexyl(tetradecyl)phosphonium chloride]
Conditions	mass density [kg/m3]	surface tension liquid-gas [mN/m]
297.99 K	–	33.62
298.15 K	882.6	–
302.94 K	–	33.15
303.15 K	880.1	–
307.4 K	–	32.72
308.15 K	877.9	–
312.09 K	–	32.3
313.15 K	875.4	–
315.84 K	–	32.01
318.15 K	873.1	–
319.49 K	–	31.74
323.15 K	869.4	–
323.95 K	–	31.43
327.96 K	–	31.15
328.15 K	866.9	–
332.81 K	–	30.76
333.15 K	864.4	–
337.27 K	–	30.42
342.09 K	–	30
347.68 K	–	29.55
